Consider four compounds from ChEMBL document CHEMBL1140139, “A beta-fluoroamine inhibitor of purine nucleoside phosphorylase” (J Med Chem, 2008).

Series [1] deals with T1, Purine nucleoside phosphorylase (Plasmodium falciparum, UniProt Q8T9Z7).
T1 sequence (Q8T9Z7 whole entry): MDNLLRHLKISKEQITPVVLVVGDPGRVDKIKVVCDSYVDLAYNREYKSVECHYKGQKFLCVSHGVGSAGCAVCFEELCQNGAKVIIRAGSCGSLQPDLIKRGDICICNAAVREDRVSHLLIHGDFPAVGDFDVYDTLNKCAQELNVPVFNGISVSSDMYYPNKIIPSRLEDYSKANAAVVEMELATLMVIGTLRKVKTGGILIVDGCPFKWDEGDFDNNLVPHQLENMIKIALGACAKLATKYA
The series can be described thus: Inhibition of Plasmodium falciparum purine nucleoside phosphorylase by xanthine-oxidase coupled assay.

Series [2] deals with T2, Purine nucleoside phosphorylase (Homo sapiens, UniProt P00491).
T2 sequence (P00491 whole entry): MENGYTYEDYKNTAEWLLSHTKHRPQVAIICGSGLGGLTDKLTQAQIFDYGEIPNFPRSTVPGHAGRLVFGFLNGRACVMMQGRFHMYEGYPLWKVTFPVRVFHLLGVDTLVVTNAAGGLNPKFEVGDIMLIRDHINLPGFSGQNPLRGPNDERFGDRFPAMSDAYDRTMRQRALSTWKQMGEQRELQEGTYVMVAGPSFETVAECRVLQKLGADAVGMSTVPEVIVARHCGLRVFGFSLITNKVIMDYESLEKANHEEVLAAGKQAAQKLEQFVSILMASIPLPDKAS
The series can be described thus: Inhibition of human purine nucleoside phosphorylase assessed as slow onset inhibition constant by xanthine-oxidase coupled assay.

Series [3] is described as follows: in vivo. The conditions noted are these: mouse, ip, 14 nmol.
Description: Half life in mouse at 14 nmol, ip administered as single dose
The nature of series [4]: in vivo. The conditions noted are these: mouse, po, 14 nmol.
Description: Half life in mouse at 14 nmol, po administered as single dose
The species entered for the next series is Mus musculus. The series can be described thus: animal or person. The conditions noted are these: Blood, po, read-out: INH.
For series [5], the target named is T2, Purine nucleoside phosphorylase. Description: Inhibition of human purine nucleoside phosphorylase by xanthine-oxidase coupled assay.
Series [6] concerns the target T1, Purine nucleoside phosphorylase. Description: Inhibition of Plasmodium falciparum purine nucleoside phosphorylase assessed as slow onset inhibition constant by xanthine-oxidase coupled assay.

Bounds are passed on as bounds.

Description for Mus musculus: Inhibition of purine nucleoside phosphorylase in mouse blood at 0.2 mg/kg, po administered as single dose

Regarding `O=c1[nH]cnc2c(CN3C[C@H](O)[C@@](F)(CO)C3)c[nH]c12`, the figures for the Ki in series [1], in series [5] and in series [6] were 2.63 nM, 0.33 nM and 19 nM, respectively. In series [2], the Ki* came to 0.032 nM. Also, the half-life (usually how long it takes for the measured level to halve) is under 0.25 h in the series “in vivo [3]” and 20 h in the series “in vivo [4]”. The inhibition in vivo at 0.2 mg/kg in the series filed under Mus musculus is 80%.

In the case of `O=c1[nH]cnc2c(CN3C[C@@H](CO)[C@H](O)C3)c[nH]c12`, the values for the Ki in series [1], in series [5] and in series [6] were 80 nM, 0.38 nM and 1700 nM, respectively.

Take `O=c1[nH]cnc2c(CN3C[C@H](O)[C@@](F)(CO)C3)c[nH]c12` (racemic): the Ki – broadly, the equilibrium dissociation constant of an inhibitor or competing ligand from its target – came out at 3.6 nM in series [1] and 23.3 nM in series [6].

Consider `O=c1[nH]cnc2c(CN3C[C@@H](O)[C@](F)(CO)C3)c[nH]c12`, for which the values for the Ki in series [1], in series [5] and in series [6] were 260 nM, 18 nM and 2070 nM, respectively. For the same compound, in series [2], the Ki* turned out to be 1.82 nM.
